Here are results for 68 sequences from the supplement of paper PMC11208160.

The nature of the data set: recombinant UMI read abundance after kanamycin selection (control-corrected) (log10(CPM+1)); higher = more efficient recombination; extreme values may be limits of the assay; sequences stand for … in AGTGCAGAGAAAATCGGCCAGTTTTCTCTGCCTGCAGTCCGCATGCCGTGGGACCCCTTGGGTTCTAACCTGTTGCCTAGATTTATGCAGCGGACTGCCTTTCTCCCAAAGTGATAAACCGG…AGGTTGGTTTCACT; site = the 11-nt donor. The method, boiled down:
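The measure is log10(CPM+1) for recombinant UMIs. These were PCR-amplified across the donor–target junction and sequenced after Escherichia coli carrying a donor and donor-binding-loop pair library and a target plasmid with T7-inducible IS621 bridge recombinase was plated on IPTG (0.07 mM) plus kanamycin or unselected. CPM were averaged over two replicates and scaled by control-derived factors.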
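Note: IS621 bridge recombinase in Escherichia coli cells against a fixed T5 target plasmid.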

For “GACAAAGCATGGACCGGTTTTCCCGGTAATCCGTATTTGGT (site GACAAATCTAC)”, the “recombinant UMI read abundance (log10)” value was 0.

Turning to “GACAAGACATGGACCGGTTTTCCCGGTAATCCGTATTTGTG (site GACAAGACTCA)”, the “recombinant UMI read abundance (log10)” value worked out at 1.73.

For the sequence “GACAATACATGGACCGGTTTTCCCGGTAATCCGTATTTGGC (site GACAATACTGC)”, the “recombinant UMI read abundance (log10)” value was determined as 1.59.

For “GACACGCCATGGACCGGTTTTCCCGGTAATCCGTATTTGTA (site GACACGCCTTA)”, the “recombinant UMI read abundance (log10)” value is 0.0256.

As for “GACACGCCATGGACCGGTTTTCCCGGTAATCCGTATTTGTA (site GCCACGCCTTA)”, the “recombinant UMI read abundance (log10)” value came out at 0.176.

“GACACGCCATGGACCGGTTTTCCCGGTAATCCGTATTTGTA (site GGCACGCCTTA)”: the “recombinant UMI read abundance (log10)” value was 0.00761.

Regarding “GACACGCCATGGACCGGTTTTCCCGGTAATCCGTATTTGTA (site GTCACGCCTTA)”, the “recombinant UMI read abundance (log10)” value amounted to 0.0098.

Take “GACACGCCATGGACCGGTTTTCCCGGTAATCCGTATTTGTG (site GACACGCCTCA)”: the “recombinant UMI read abundance (log10)” value came out at 0.149.

For “GACAGACCATGGACCGGTTTTCCCGGTAATCCGTATTTGGT (site GACAAACCTAC)”, the “recombinant UMI read abundance (log10)” value is 0.

“GACAGACCATGGACCGGTTTTCCCGGTAATCCGTATTTGGT (site GACACACCTAC)”: the “recombinant UMI read abundance (log10)” value came to 0.00419.

On to “GACAGACCATGGACCGGTTTTCCCGGTAATCCGTATTTGGT (site GACAGACCTAC)”, for which the “recombinant UMI read abundance (log10)” value was determined as 0.0145.

For “GACAGACCATGGACCGGTTTTCCCGGTAATCCGTATTTGGT (site GACATACCTAC)”, the “recombinant UMI read abundance (log10)” value is 0.

For “GACATACCATGGACCGGTTTTCCCGGTAATCCGTATTTGGC (site GACATACCTGC)”, the “recombinant UMI read abundance (log10)” value amounted to 0.

For the sequence “GACCCATCATGGACCGGTTTTCCCGGTAATCCGTATTTGGA (site GACCCATCTTC)”, the “recombinant UMI read abundance (log10)” value was 1.26.

As to “GACCGGGCATGGACCGGTTTTCCCGGTAATCCGTATTTGAT (site GACCGGGCTAT)”, the “recombinant UMI read abundance (log10)” value was 0.662.

Consider “GACCGTCCATGGACCGGTTTTCCCGGTAATCCGTATTTGAT (site AACCGTCCTAT)”, for which the “recombinant UMI read abundance (log10)” value came to 0.

On to “GACCGTCCATGGACCGGTTTTCCCGGTAATCCGTATTTGAT (site CACCGTCCTAT)”, for which the “recombinant UMI read abundance (log10)” value came to 0.00334.

For the sequence “GACCGTCCATGGACCGGTTTTCCCGGTAATCCGTATTTGAT (site GACCGTCCTAT)”, the “recombinant UMI read abundance (log10)” value was 0.0192.

Take “GACCGTCCATGGACCGGTTTTCCCGGTAATCCGTATTTGAT (site TACCGTCCTAT)”: the “recombinant UMI read abundance (log10)” value came out at 0.0517.

Turning to “GACCTCACATGGACCGGTTTTCCCGGTAATCCGTATTTGTA (site GACCTCACTTA)”, the “recombinant UMI read abundance (log10)” value turned out to be 0.0239.

Turning to “GACGAAACATGGACCGGTTTTCCCGGTAATCCGTATTTGTA (site GACGAAACTTA)”, the “recombinant UMI read abundance (log10)” value turned out to be 2.54.

Regarding “GACGAAGCATGGACCGGTTTTCCCGGTAATCCGTATTTGCT (site GACGAAGCTAG)”, the “recombinant UMI read abundance (log10)” value is 2.11.

“GACGCCACATGGACCGGTTTTCCCGGTAATCCGTATTTGAA (site GACGCCACTTT)”: the “recombinant UMI read abundance (log10)” value came out at 0.827.

Consider “GACGCCGCATGGACCGGTTTTCCCGGTAATCCGTATTTGAG (site GACGCCGCTCT)”, for which the “recombinant UMI read abundance (log10)” value was 0.349.

In the case of “GACGCTACATGGACCGGTTTTCCCGGTAATCCGTATTTGCA (site GACGCTACTTG)”, the “recombinant UMI read abundance (log10)” value is 1.36.

Turning to “GACTATCCATGGACCGGTTTTCCCGGTAATCCGTATTTGCT (site GAATATCCTAG)”, the “recombinant UMI read abundance (log10)” value stood at 0.00525.

For “GACTATCCATGGACCGGTTTTCCCGGTAATCCGTATTTGCT (site GACTATCCTAG)”, the “recombinant UMI read abundance (log10)” value was found to be 1.29.

For “GACTATCCATGGACCGGTTTTCCCGGTAATCCGTATTTGCT (site GAGTATCCTAG)”, the “recombinant UMI read abundance (log10)” value came to 0.

Consider “GACTATCCATGGACCGGTTTTCCCGGTAATCCGTATTTGCT (site GATTATCCTAG)”, for which the “recombinant UMI read abundance (log10)” value was found to be 0.

For “GACTCACCATGGACCGGTTTTCCCGGTAATCCGTATTTGAC (site GACTCACCTGT)”, the “recombinant UMI read abundance (log10)” value was determined as 0.

In the case of “GACTCCCCATGGACCGGTTTTCCCGGTAATCCGTATTTGCA (site GACTCCCCTTG)”, the “recombinant UMI read abundance (log10)” value is 1.3.

In the case of “GACTCCTCATGGACCGGTTTTCCCGGTAATCCGTATTTGCC (site AACTCCTCTGG)”, the “recombinant UMI read abundance (log10)” value amounted to 1.71.

Turning to “GACTCCTCATGGACCGGTTTTCCCGGTAATCCGTATTTGCC (site CACTCCTCTGG)”, the “recombinant UMI read abundance (log10)” value is 1.86.

Take “GACTCCTCATGGACCGGTTTTCCCGGTAATCCGTATTTGCC (site GACTCCTCTGG)”: the “recombinant UMI read abundance (log10)” value was found to be 2.02.

In the case of “GACTCCTCATGGACCGGTTTTCCCGGTAATCCGTATTTGCC (site TACTCCTCTGG)”, the “recombinant UMI read abundance (log10)” value amounted to 2.07.

On to “GACTTAGCATGGACCGGTTTTCCCGGTAATCCGTATTTGTG (site GACTTAGCTCA)”, for which the “recombinant UMI read abundance (log10)” value is 0.251.

Take “GACTTGACATGGACCGGTTTTCCCGGTAATCCGTATTTGCT (site AACTTGACTAG)”: the “recombinant UMI read abundance (log10)” value was determined as 1.3.

On to “GACTTGACATGGACCGGTTTTCCCGGTAATCCGTATTTGCT (site CACTTGACTAG)”, for which the “recombinant UMI read abundance (log10)” value worked out at 0.596.

Take “GACTTGACATGGACCGGTTTTCCCGGTAATCCGTATTTGCT (site GACTTGACTAG)”: the “recombinant UMI read abundance (log10)” value was determined as 0.984.

On to “GACTTGACATGGACCGGTTTTCCCGGTAATCCGTATTTGCT (site TACTTGACTAG)”, for which the “recombinant UMI read abundance (log10)” value stood at 0.923.

For “GACTTGGCATGGACCGGTTTTCCCGGTAATCCGTATTTGGA (site AACTTGGCTTC)”, the “recombinant UMI read abundance (log10)” value came to 0.227.

Take “GACTTGGCATGGACCGGTTTTCCCGGTAATCCGTATTTGGA (site CACTTGGCTTC)”: the “recombinant UMI read abundance (log10)” value is 0.579.

For the sequence “GACTTGGCATGGACCGGTTTTCCCGGTAATCCGTATTTGGA (site GACTTGGCTTC)”, the “recombinant UMI read abundance (log10)” value stood at 0.654.

On to “GACTTGGCATGGACCGGTTTTCCCGGTAATCCGTATTTGGA (site TACTTGGCTTC)”, for which the “recombinant UMI read abundance (log10)” value was 0.28.

Consider “GACTTTCCATGGACCGGTTTTCCCGGTAATCCGTATTTGAC (site GACTTTCCTGT)”, for which the “recombinant UMI read abundance (log10)” value amounted to 0.0655.

Turning to “GAGAATGCATGGACCGGTTTTCCCGGTAATCCGTATTTGCT (site GAGAATGCTAG)”, the “recombinant UMI read abundance (log10)” value amounted to 2.16.

With “GAGACGCCATGGACCGGTTTTCCCGGTAATCCGTATTTGAT (site GAGACGCCTAT)”, the “recombinant UMI read abundance (log10)” value was 0.566.

Turning to “GAGATTCCATGGACCGGTTTTCCCGGTAATCCGTATTTGGG (site GAGATTCCTCC)”, the “recombinant UMI read abundance (log10)” value was 0.0141.

Take “GAGCACACATGGACCGGTTTTCCCGGTAATCCGTATTTGAT (site GAGCACACTAT)”: the “recombinant UMI read abundance (log10)” value came to 1.9.

As for “GAGCACACATGGACCGGTTTTCCCGGTAATCCGTATTTGAT (site GAGCCCACTAT)”, the “recombinant UMI read abundance (log10)” value turned out to be 0.0144.

For the sequence “GAGCACACATGGACCGGTTTTCCCGGTAATCCGTATTTGAT (site GAGCGCACTAT)”, the “recombinant UMI read abundance (log10)” value was 0.00425.

Take “GAGCACACATGGACCGGTTTTCCCGGTAATCCGTATTTGAT (site GAGCTCACTAT)”: the “recombinant UMI read abundance (log10)” value worked out at 0.

Regarding “GAGCCGGCATGGACCGGTTTTCCCGGTAATCCGTATTTGAA (site GAGCCGGCTTT)”, the “recombinant UMI read abundance (log10)” value worked out at 0.241.

For “GAGCCGTCATGGACCGGTTTTCCCGGTAATCCGTATTTGAT (site GAGCCGTCTAT)”, the “recombinant UMI read abundance (log10)” value turned out to be 1.32.

For the sequence “GAGCCTCCATGGACCGGTTTTCCCGGTAATCCGTATTTGAG (site GAGCCTCCTCT)”, the “recombinant UMI read abundance (log10)” value was 0.0215.

On to “GAGCGCTCATGGACCGGTTTTCCCGGTAATCCGTATTTGCG (site GAGCGCTCTCG)”, for which the “recombinant UMI read abundance (log10)” value is 2.26.

Regarding “GAGCGGACATGGACCGGTTTTCCCGGTAATCCGTATTTGGC (site GAGCGGACTGC)”, the “recombinant UMI read abundance (log10)” value stood at 2.85.

Consider “GAGCTACCATGGACCGGTTTTCCCGGTAATCCGTATTTGGC (site GAGCTACCTGC)”, for which the “recombinant UMI read abundance (log10)” value amounted to 0.

Consider “GAGCTAGCATGGACCGGTTTTCCCGGTAATCCGTATTTGAA (site AAGCTAGCTTT)”, for which the “recombinant UMI read abundance (log10)” value came to 1.5.

As to “GAGCTAGCATGGACCGGTTTTCCCGGTAATCCGTATTTGAA (site CAGCTAGCTTT)”, the “recombinant UMI read abundance (log10)” value worked out at 0.896.

On to “GAGCTAGCATGGACCGGTTTTCCCGGTAATCCGTATTTGAA (site GAGCTAGCTTT)”, for which the “recombinant UMI read abundance (log10)” value amounted to 2.14.

As to “GAGCTAGCATGGACCGGTTTTCCCGGTAATCCGTATTTGAA (site TAGCTAGCTTT)”, the “recombinant UMI read abundance (log10)” value was 1.63.

As to “GAGCTCACATGGACCGGTTTTCCCGGTAATCCGTATTTGAA (site GAGCTCACTAT)”, the “recombinant UMI read abundance (log10)” value stood at 0.839.

Turning to “GAGCTCACATGGACCGGTTTTCCCGGTAATCCGTATTTGAA (site GAGCTCACTCT)”, the “recombinant UMI read abundance (log10)” value was determined as 0.0248.

Consider “GAGCTCACATGGACCGGTTTTCCCGGTAATCCGTATTTGAA (site GAGCTCACTGT)”, for which the “recombinant UMI read abundance (log10)” value is 0.716.

Consider “GAGCTCACATGGACCGGTTTTCCCGGTAATCCGTATTTGAA (site GAGCTCACTTT)”, for which the “recombinant UMI read abundance (log10)” value was 1.43.

As to “GAGCTCACATGGACCGGTTTTCCCGGTAATCCGTATTTGAG (site GAGCTCACTAT)”, the “recombinant UMI read abundance (log10)” value worked out at 0.277.

“GAGCTCACATGGACCGGTTTTCCCGGTAATCCGTATTTGAG (site GAGCTCACTCT)”: the “recombinant UMI read abundance (log10)” value was 0.665.
